Square brackets hold non-standard residues; d marks the D form. Peptide text beside a SMILES is read from it. dPip = O=C(O)[C@H]1CCCCN1; Nphe = O=C(O)CNCc1ccccc1; Nleu = CC(C)CNCC(=O)O; NEtG = CCNCC(=O)O
Key:
human thrombin = molecular target: T1, human thrombin (Homo sapiens, UniProt P00734); assay: Inhibition of amidase activity of thrombin (Kass), chromogenic substrate; format: biochemical; details: apparent association constant, mean over a range of concentrations
T1 construct: purified human thrombin, Enzyme Research Laboratories; purchased Enzyme Research Laboratories, South Bend, Indiana
Method: The assay is carried out by mixing 50 μL buffer (0.03 M Tris, 0.15 M NaCl, pH 7.4) with 25 μL of bovine thrombin or human thrombin solution (0.21 mg/mL of thrombostat bovine thrombin, Parke-Davis, or purified human thrombin, Enzyme Research Laboratories, South Bend, Indiana, at about 8 NIH units/mL, in the same buffer) and 25 μL of test compound in a solvent (in 50% aqueous methanol, v:v). The 150 μL of an aqueous solution of the chromogenic substrate (at 0.25 mg/mL) are added and the rates of hydrolysis of the substrate are measured by monitoring the reactions at 405 nm for the release of p-nitroaniline. Standard curves are constructed by plotting free thrombin concentration against hydrolysis rate. The hydrolysis rates observed with test compounds are then converted to "free thrombin" values in the respective assays by use of the standard curves. The bound thrombin (bound to test compound) is calculated by subtracting the amount of free thrombin observed in each assay from the known initial amount of thrombin used in the assay. The amount of free inhibitor in each assay is calculated by subtracting the number of moles of bound thrombin from the number of moles of added inhibitor (test compound).
The Kass value is the hypothetical equilibrium constant for the reaction between thrombin and the test compound (I). [formula]
Kass is calculated for a range of concentrations of test compounds and the mean value is reported in units of liter per mole.

human plasma [1] = assay: Human plasma anticoagulation, thrombin time (TT); details: concentration required to double the thrombin time, linear extrapolation
Method: (§1) Dog plasma and rat plasma is obtained from conscious mixed-breed hounds (either sex, Hazelton-LRE, Kalamazoo, Mich., U.S.A.) or from anesthetized male Sprague-Dawley rats (Harlan Sprague-Dawley, Inc., Indianapolis, Ind., U.S.A.) by venipuncture into 3.8 percent citrate. Fibrinogen is prepared from in-date ACD human blood as the fraction I-2 according to previous procedures and specifications. Smith, Biochem. J., 185, 1-11 (1980); and Smith, et al., Biochemistry, 11, 2958-2967 (1972). Human fibrinogen is also purchased as 98 percent pure/plasmin free from American Diagnostica, Greenwich, Conn. Coagulation reagents ACTIN, Thromboplastin, and Human plasma are from Baxter Healthcare Corp., Dade Division, Miami, Fla. Bovine thrombin from Parke-Davis ([…], Mich.) is used for coagulation assays in plasma.
(§2) Coagulation assay procedures are as previously described. Smith, et al., Thrombosis Research, 50, 163-174 (1988). A CoAScreener coagulation instrument (American LABor, Inc.) is used for all coagulation assay measurements. The prothrombin time (PT) is measured by adding 0.05 mL saline and 0.05 mL Thromboplastin-C reagent to 0.05 mL test plasma. The activated partial thromboplastin time (APTT) is measured by incubation of 0.05 mL test plasma with 0.05 mL Actin reagent for 120 seconds followed by 0.05 mL CaCl2 (0.02 M). The thrombin time (TT) is measured by adding 0.05 mL saline and 0.05 mL thrombin (10 NIH units/mL) to 0.05 mL test plasma. The compounds of formula I are added to human or animal plasma over a wide range of concentrations to determine prolongation effects on the APTT, PT, and TT assays. Linear extrapolations are performed to estimate the concentrations required to double the clotting time for each assay.

factor Xa = molecular target: T2, factor Xa (Homo sapiens, UniProt P00742); assay: Serine protease selectivity, Kass, factor Xa chromogenic assay; format: biochemical; details: apparent association constant
T2 construct: Human factors X, Xa, IXa, XIa, and XIIa are purchased from Enzyme Research Laboratories; purchased Enzyme Research Laboratories, South Bend, Ind
T2 sequence (P00742 235-488 limits assumed): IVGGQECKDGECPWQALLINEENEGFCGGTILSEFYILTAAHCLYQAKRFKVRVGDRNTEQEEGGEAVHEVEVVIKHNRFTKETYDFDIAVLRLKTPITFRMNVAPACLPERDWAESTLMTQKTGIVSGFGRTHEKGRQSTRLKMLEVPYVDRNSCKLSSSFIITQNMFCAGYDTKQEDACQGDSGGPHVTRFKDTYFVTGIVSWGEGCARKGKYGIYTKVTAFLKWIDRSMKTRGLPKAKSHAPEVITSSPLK
T2 sequence (P00742 41-179 partner limits assumed): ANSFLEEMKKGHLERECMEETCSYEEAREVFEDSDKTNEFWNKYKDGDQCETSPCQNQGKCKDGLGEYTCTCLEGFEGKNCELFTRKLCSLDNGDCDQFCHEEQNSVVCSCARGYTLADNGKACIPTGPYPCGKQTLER
Method: (§3) By substantially following the procedures described above for human thrombin, and using other human blood coagulation system serine proteases and proteases of the fibrinolytic system with the appropriate chromogenic substrates, identified below, selectivity of the compounds of the present invention with respect to the coagulation factor serine proteases and with respect to the fibrinolytic system serine proteases are evaluated as well as their substantial lack of interference with serine proteases of the fibrinolytic system. Thrombin inhibitors preferably should spare fibrinolysis induced by urokinase, tissue plasminogen activator (t-PA) and streptokinase. This would be important to the therapeutic use of such agents as an adjunct to streptokinase, t-PA or urokinase thrombolytic therapy and to the use of such agents as an endogenous fibrinolysis-sparing (with respect to t-PA and urokinase) antithrombotic agent. In addition to the lack of interference with the amidase activity of the fibrinolytic proteases, such fibrinolytic system sparing can be studied by the use of human plasma clots and their lysis by the respective fibrinolytic plasminogen activators.
(§4) Human factors X, Xa, IXa, XIa, and XIIa are purchased from Enzyme Research Laboratories, South Bend, Ind.; human urokinase from Leo Pharmaceuticals, Denmark; and recombinant activated Protein C (aPC) is prepared at Eli Lilly and Co. substantially according to U.S. Pat. No. 4,981,952 incorporated by reference herein in its entirety. Chromogenic substrates: N--Benzoyl--Ile--Glu--Gly--Arg--p--nitroanilide (for factor Xa); N--Cbz--D--Arg--Gly--Arg--p--nitroanilide (for factor IXa assay as the factor Xa substrate); Pyroglutamyl--Pro--Arg--p--nitroanilide (for Factor XIa and for aPC); H--D--Pro--Phe--Arg--p--nitroanilide (for factor XIIa); and Pyroglutamyl--Gly--Arg--p--nitroanilide (for urokinase); are purchased from KabiVitrum, Stockholm, Sweden, or from Midwest Biotech, Fishers, Indiana. Bovine trypsin is purchased from Worthington Biochemicals, Freehold, N.J., and human plasma kallikrein from Kabi Vitrum, Stockholm, Sweden. Chromogenic substrate H--D--Pro--Phe--Arg--p--nitroanilide for plasma kallikrein is purchased from Kabi Vitrum, Stockholm, Sweden. N--Benzoyl--Phe--Val--Arg--p--nitroanilide, the substrate for human thrombin and for trypsin, is synthesized according to procedures described above for the compounds of the present invention, using known methods of peptide coupling from commercially available reactants or purchased from Midwest Biotech, Fishers, Ind.

human plasma [2] = assay: Human plasma anticoagulation, prothrombin time (PT); details: concentration required to double the PT, linear extrapolation
Method: as §1, §2

Bovine trypsin = molecular target: T3, Bovine trypsin (Bos taurus, UniProt P00760); assay: Serine protease selectivity, Kass, trypsin chromogenic assay; format: biochemical; details: apparent association constant
T3 construct: purchased Worthington Biochemicals, Freehold, N.J
T3 sequence (P00760 24-246): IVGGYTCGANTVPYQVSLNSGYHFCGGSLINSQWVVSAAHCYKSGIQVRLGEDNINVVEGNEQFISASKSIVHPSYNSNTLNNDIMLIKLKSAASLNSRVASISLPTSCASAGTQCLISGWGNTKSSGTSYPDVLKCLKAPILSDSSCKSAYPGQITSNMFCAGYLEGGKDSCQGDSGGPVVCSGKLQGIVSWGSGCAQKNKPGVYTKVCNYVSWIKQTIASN
Method: as §3, §4

Human plasmin = molecular target: T4, Human plasmin (Homo sapiens, UniProt P00747); assay: Fibrinolytic protease selectivity, Kass, plasmin chromogenic assay; format: biochemical; details: apparent association constant
T4 construct: Human plasmin is purchased from Boehringer Mannheim; purchased Boehringer Mannheim, Indianapolis, Indiana
T4 sequence (P00747 581-810 limits assumed): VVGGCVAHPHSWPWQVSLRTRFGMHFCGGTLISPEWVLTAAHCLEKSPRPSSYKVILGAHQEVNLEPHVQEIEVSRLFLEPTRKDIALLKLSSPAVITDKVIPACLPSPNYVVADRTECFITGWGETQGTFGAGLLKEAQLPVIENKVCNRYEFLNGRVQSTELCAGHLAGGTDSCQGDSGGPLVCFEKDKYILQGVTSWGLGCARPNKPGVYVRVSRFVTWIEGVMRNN
T4 sequence (P00747 97-580 partner limits assumed): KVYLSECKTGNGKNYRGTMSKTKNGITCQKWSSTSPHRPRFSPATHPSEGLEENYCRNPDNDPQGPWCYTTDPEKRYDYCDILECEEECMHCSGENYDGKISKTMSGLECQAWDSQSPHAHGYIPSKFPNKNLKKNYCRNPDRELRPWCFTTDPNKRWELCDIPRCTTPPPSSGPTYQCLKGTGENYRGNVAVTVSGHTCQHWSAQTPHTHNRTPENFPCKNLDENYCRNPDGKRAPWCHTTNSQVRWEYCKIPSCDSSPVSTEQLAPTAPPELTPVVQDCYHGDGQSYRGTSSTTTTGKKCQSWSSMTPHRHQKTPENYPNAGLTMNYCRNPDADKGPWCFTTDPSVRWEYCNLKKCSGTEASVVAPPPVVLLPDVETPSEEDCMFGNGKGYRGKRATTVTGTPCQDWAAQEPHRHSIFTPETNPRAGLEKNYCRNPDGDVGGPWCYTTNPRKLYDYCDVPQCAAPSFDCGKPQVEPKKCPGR
Method: as §3
(§5) Human plasmin is purchased from Boehringer Mannheim, Indianapolis, Indiana; nt-PA is purchased as single chain activity reference from American Diagnostica, Greenwich, Conn.; modified-t-PA6 (mt-PA6) is prepared at Eli Lilly and Company by procedure known in the art (See, Burck, et al., J. Biol. Chem., 265, […] (1990). Plasmin chromogenic substrate H--D--Val--Leu--Lys--p--nitroanilide and tissue plasminogen activator (t-PA) substrate H--D--Ile--Pro--Arg--p--nitroanilide are purchased from Kabi Vitrum, Stockholm, Sweden.

[3] = molecular target: T5, tissue plasminogen activator (t-PA) (Homo sapiens, UniProt P00750); assay: Fibrinolytic protease selectivity, Kass, t-PA chromogenic assay; format: biochemical; details: apparent association constant
T5 construct: purchased American Diagnostica, Greenwich, Conn
T5 sequence (P00750 36-562): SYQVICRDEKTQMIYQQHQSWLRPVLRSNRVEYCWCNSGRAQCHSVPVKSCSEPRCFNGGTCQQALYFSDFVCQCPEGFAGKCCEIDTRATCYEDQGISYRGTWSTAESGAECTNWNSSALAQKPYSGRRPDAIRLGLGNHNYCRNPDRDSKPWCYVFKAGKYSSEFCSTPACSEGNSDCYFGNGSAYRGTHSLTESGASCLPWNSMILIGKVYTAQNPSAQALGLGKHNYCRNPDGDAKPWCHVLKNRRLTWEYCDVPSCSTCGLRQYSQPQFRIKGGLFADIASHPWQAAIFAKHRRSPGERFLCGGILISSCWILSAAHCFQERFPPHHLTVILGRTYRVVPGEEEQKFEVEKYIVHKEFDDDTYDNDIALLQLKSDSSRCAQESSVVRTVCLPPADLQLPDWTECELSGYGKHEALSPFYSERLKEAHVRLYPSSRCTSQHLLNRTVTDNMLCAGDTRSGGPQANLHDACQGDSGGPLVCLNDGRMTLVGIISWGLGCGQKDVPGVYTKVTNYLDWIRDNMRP
Method: as §3, §5

human plasma [4] = assay: Human plasma anticoagulation, activated partial thromboplastin time (APTT); details: concentration required to double the APTT, linear extrapolation
Method: as §1, §2

SMILES	Enzyme Kass Human Thrombin (human thrombin) [L/mol × 10^6]	Human Plasma Anticoagulation 2 × Clotting time TT (human plasma [1]) [ng/mL]	Enzyme Kass Xa (factor Xa) [L/mol × 10^6]	Human Plasma Anticoagulation 2 × Clotting time PT (human plasma [2])	Enzyme Kass Trypsin (Bovine trypsin) [L/mol × 10^6]	Enzyme Kass Plasmin (Human plasmin) [L/mol × 10^6]	Enzyme Kass t-PA [3] [L/mol × 10^6]	Human Plasma Anticoagulation 2 × Clotting time APTT (human plasma [4])
CCN(CC(=O)N[C@H](C=O)CCCNC(=N)N)C(=O)[C@H]1CCCCN1.Cl.Cl [Example 2, D-homoprolyl-N-ethylglycyl-L-argininal dihydrochloride] (H-[dPip]-[NEtG]-Arg-aldehyde)	33	160	0.039	5,000 ng/mL	1.3	0.013	0.005	2,600 ng/mL
CCCN(CC(=O)N[C@H](C=O)CCCNC(=N)N)C(=O)[C@H]1CCCCN1.Cl.Cl [Example 3, D-homoprolyl-N-n-propylglycyl-L-argininal dihydrochloride]	34	77	0.084	2,000 ng/mL	2.4	0.045	0.004	2,100 ng/mL
CC(C)N(CC(=O)NC(C=O)CCCNC(=N)N)C(=O)C1CCCCN1.Cl.Cl [Example 4, D--hPro--N(i--Pr)Gly--ArgH.2HCl]	9.7	230	0.074	14,000 ng/mL	0.5	0.031	0.001	12,000 ng/mL
CC(C)CN(CC(=O)N[C@H](C=O)CCCNC(=N)N)C(=O)[C@H]1CCCCN1.Cl.Cl [Example 5, D--hPro--N(i--Bu)Gly--ArgH.2HCl] (H-[dPip]-[Nleu]-Arg-aldehyde)	24	100	0.060	4,900 ng/mL	1.6	0.050	0.002	3,800 ng/mL
Cl.Cl.N=C(N)NCCC[C@@H](C=O)NC(=O)CN(Cc1ccccc1)C(=O)[C@H]1CCCCN1 [Example 7, D--hPro--N(Bn)Gly--ArgH.2HCl] (H-[dPip]-[Nphe]-Arg-aldehyde)	11	120	0.25	4,400 ng/mL	10	0.13	0.010	3,700 ng/mL
Cl.Cl.N=C(N)NCCC[C@@H](C=O)NC(=O)CN(CCCc1ccccc1)C(=O)[C@H]1CCCCN1 [Example 9, D--hPro--N(PhCH2 CH2 CH2)Gly--ArgH.2HCl]	24	55	0.31	3,000 ng/mL	6.0	0.12	0.006	2,200 ng/mL
Cl.Cl.NC(N)=NCCC[C@@H](C=O)NC(=O)CN(CCC1CCCCC1)C(=O)[C@H]1CCCCN1 [Example 10, D--hPro--N(cyclohexyl--CH2 CH2)Gly--ArgH.2HCl]	5.4	230	0.22	6,900 ng/mL	5.8	0.33	0.007	4,100 ng/mL
Cl.Cl.N=C(N)NCCC[C@@H](C=O)NC(=O)CN(C(=O)[C@H]1CCCCN1)c1ccccc1 [Example 11, D--hPro--N(Ph)Gly--ArgH.2HCl]	16	120	0.21	3,100 ng/mL	1.1	0.036	0.0039	2,200 ng/mL
